Assay [1] has as its target Mast/stem cell growth factor receptor Kit (Homo sapiens, UniProt P10721). The assay can be described thus: Inhibition of wild type KIT (unknown origin).
The subject of assay [2] is BaF3. The assay can be described thus: cells. Particulars: Mus musculus.
Description: Antiproliferative activity against mouse BaF3 cells harboring TRKA F589L mutant assessed as cell growth inhibition
In assay [3] the target is Fibroblast growth factor receptor 4 (Mus musculus, UniProt Q03142). The assay can be described thus: Inhibition of FGFR4 in mouse BaF3 cells. Type of assay: cell-based.
Assay [4] can be described thus: Antiproliferative activity against mouse 32D cells expressing FLT3-ITD assessed as cell growth inhibition. The class given is functional.
Assay [5] can be described thus: Antiproliferative activity against mouse 32D cells expressing FLT3-ITD-F691L assessed as cell growth inhibition. The class given is functional.
Assay [6] can be described thus: Antiproliferative activity against mouse 32D cells expressing FLT3-D835Y assessed as cell growth inhibition. The class given is functional.
Assay [7] relates to BaF3. The assay is described as follows: Antiproliferative activity against mouse BaF3 cells harboring FLT3 F691L mutant assessed as cell growth inhibition. Type of assay: functional, cell-based.
Another assay concerns MOLM-14. The assay is described as follows: Antiproliferative activity against human MOLM-14 cells harboring FLT3 F691L mutant assessed as cell growth inhibition. The class given is functional, cell-based.
The test system of assay [8] is BaF3. The assay is described as follows: Antiproliferative activity against mouse BaF3 cells harboring FLT3 D835Y mutant assessed as cell growth inhibition. The class given is functional, cell-based.

Mast/stem cell growth factor receptor Kit, sequence (P10721 whole entry): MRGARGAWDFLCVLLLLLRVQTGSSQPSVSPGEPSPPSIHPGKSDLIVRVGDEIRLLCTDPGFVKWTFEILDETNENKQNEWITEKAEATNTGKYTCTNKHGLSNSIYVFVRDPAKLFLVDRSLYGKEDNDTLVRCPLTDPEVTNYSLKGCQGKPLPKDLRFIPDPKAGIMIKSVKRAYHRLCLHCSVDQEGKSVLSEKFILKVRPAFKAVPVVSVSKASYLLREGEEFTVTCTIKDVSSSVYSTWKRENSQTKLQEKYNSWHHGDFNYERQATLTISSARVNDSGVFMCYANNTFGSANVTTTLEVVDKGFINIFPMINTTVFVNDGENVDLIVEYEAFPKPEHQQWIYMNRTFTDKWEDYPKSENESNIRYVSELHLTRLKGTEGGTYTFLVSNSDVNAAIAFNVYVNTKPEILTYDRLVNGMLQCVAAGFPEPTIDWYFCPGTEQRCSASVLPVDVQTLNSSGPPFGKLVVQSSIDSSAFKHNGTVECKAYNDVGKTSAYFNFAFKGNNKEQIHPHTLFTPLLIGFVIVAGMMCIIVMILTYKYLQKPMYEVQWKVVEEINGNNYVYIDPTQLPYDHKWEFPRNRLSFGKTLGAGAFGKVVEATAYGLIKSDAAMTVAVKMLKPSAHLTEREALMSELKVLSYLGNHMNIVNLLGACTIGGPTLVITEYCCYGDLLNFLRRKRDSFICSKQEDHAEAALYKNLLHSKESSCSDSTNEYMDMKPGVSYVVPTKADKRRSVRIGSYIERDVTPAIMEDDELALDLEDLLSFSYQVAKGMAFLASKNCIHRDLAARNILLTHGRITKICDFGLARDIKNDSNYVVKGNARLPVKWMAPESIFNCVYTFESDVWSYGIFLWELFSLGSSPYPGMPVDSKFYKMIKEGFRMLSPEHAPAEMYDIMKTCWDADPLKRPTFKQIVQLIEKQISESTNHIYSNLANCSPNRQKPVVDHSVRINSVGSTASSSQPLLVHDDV
Fibroblast growth factor receptor 4, sequence (Q03142 whole entry): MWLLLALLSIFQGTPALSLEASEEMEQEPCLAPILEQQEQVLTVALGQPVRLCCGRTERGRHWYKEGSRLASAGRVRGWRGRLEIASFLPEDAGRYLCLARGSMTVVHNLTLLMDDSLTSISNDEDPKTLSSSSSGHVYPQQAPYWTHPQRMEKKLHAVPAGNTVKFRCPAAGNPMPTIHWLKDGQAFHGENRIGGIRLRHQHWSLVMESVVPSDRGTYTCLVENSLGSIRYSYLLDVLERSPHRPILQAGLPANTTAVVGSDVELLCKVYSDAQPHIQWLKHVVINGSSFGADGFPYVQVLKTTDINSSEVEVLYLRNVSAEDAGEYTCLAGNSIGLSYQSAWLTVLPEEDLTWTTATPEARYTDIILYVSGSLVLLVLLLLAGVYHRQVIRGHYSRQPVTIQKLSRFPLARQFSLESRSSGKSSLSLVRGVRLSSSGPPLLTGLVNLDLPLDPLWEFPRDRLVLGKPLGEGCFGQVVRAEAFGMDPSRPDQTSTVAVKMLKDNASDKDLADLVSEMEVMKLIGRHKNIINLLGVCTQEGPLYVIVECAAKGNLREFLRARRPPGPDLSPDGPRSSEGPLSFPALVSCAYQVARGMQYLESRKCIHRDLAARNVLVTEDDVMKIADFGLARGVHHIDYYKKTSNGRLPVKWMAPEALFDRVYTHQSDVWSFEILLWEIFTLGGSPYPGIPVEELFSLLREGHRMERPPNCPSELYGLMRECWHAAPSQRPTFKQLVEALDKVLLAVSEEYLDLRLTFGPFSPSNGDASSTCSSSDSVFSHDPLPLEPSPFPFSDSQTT

The compound `COCCOc1cc(F)c2c(Nc3ccc(NC(=O)Cn4cc(C(C)C)nn4)cc3)ncnc2c1` had an IC50 in assay [1] of 3 nM.

In the assay with BaF3 [2], `C[C@@H]1CCc2ncc(F)cc2[C@H]2CCCN2c2ccn3ncc(c3n2)C(=O)N1` [SELITRECTINIB] registered an IC50 of 27.8 nM.

In turn, `C=CC(=O)Nc1cc(N2CCC(N3CCOCC3)CC2)cc(F)c1Nc1n[nH]c2ccc(O[C@H](C)c3c(Cl)cncc3Cl)cc12` registered an IC50 in assay [3] of 3.5 nM.

As to `CCCNc1nc(Nc2ccc(C#N)cc2)ncc1C#CCCCNC(=O)[C@H](C)N(C)C(=O)/C=C/CN(C)C` [FF-10101], the concentration for 50% growth inhibition (GI50) in [4] was found to be 1.9 nM; in assay [5], 10 nM; in [6], 0.81 nM.

Take `FC(F)(F)c1ccc(CNc2ccc(Cc3c[nH]c4ncc(Cl)cc34)cn2)cn1` [PEXIDARTINIB]: the IC50 was determined as 97 nM with BaF3 [7], 670 nM in the assay with MOLM-14 and 4700 nM with BaF3 [8].

Values taken from ChEMBL document CHEMBL5236591, “Targeting Gatekeeper Mutations for Kinase Drug Discovery” (J Med Chem, 2022).
